Measured values reported in PubChem BioAssay (NCI).
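Assay format: 96-well plates, 48-hour exposure. The concentration for full growth arrest is given as TGI.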

Assays:
Assay in all cases: NCI anticancer screen, dose series, 48 h
OVCAR-3 ovarian = test system: OVCAR-3 ovarian
OVCAR-8 ovarian = test system: OVCAR-8 ovarian
MCF7 breast = test system: MCF7 breast
A498 renal = test system: A498 renal
K-562 leukemia = test system: K-562 leukemia
UACC-257 melanoma = test system: UACC-257 melanoma
SN12C renal = test system: SN12C renal
SNB-19 CNS = test system: SNB-19 CNS
HS 578T breast = test system: HS 578T breast
SF-295 CNS = test system: SF-295 CNS
786-0 renal = test system: 786-0 renal
NCI/ADR-RES ovarian = test system: NCI/ADR-RES ovarian
OVCAR-5 ovarian = test system: OVCAR-5 ovarian
MDA-MB-435 = test system: MDA-MB-435
TK-10 renal = test system: TK-10 renal
U251 CNS = test system: U251 CNS
SF-268 CNS = test system: SF-268 CNS
M14 melanoma = test system: M14 melanoma
BT-549 breast = test system: BT-549 breast
HL-60(TB) leukemia = test system: HL-60(TB) leukemia
COLO 205 colon = test system: COLO 205 colon
SK-MEL-2 melanoma = test system: SK-MEL-2 melanoma
HCT-15 colon = test system: HCT-15 colon
CCRF-CEM leukemia = test system: CCRF-CEM leukemia
MDA-N = test system: MDA-N
OVCAR-4 ovarian = test system: OVCAR-4 ovarian
IGROV1 ovarian = test system: IGROV1 ovarian
HOP-62 NSCLC = test system: HOP-62 NSCLC
EKVX NSCLC = test system: EKVX NSCLC
UACC-62 melanoma = test system: UACC-62 melanoma
SF-539 CNS = test system: SF-539 CNS
UO-31 renal = test system: UO-31 renal
SK-MEL-5 melanoma = test system: SK-MEL-5 melanoma
LOX IMVI melanoma = test system: LOX IMVI melanoma
T-47D breast = test system: T-47D breast
CAKI-1 renal = test system: CAKI-1 renal
RPMI-8226 leukemia = test system: RPMI-8226 leukemia
PC-3 prostate = test system: PC-3 prostate
MOLT-4 leukemia = test system: MOLT-4 leukemia
NCI-H226 lung = test system: NCI-H226 lung
NCI-H23 lung = test system: NCI-H23 lung
HOP-92 NSCLC = test system: HOP-92 NSCLC
ACHN renal = test system: ACHN renal
SK-MEL-28 melanoma = test system: SK-MEL-28 melanoma
NCI-H522 lung = test system: NCI-H522 lung
HCT-116 colon = test system: HCT-116 colon
MDA-MB-231 breast = test system: MDA-MB-231 breast
HT29 colon = test system: HT29 colon
A549 NSCLC = test system: A549 NSCLC
MALME-3M melanoma = test system: MALME-3M melanoma
DU-145 prostate = test system: DU-145 prostate
SW-620 colon = test system: SW-620 colon
HCC-2998 colon = test system: HCC-2998 colon
RXF 393 renal = test system: RXF 393 renal
KM12 colon = test system: KM12 colon
NCI-H460 lung = test system: NCI-H460 lung
SK-OV-3 ovarian = test system: SK-OV-3 ovarian
SNB-75 CNS = test system: SNB-75 CNS

Measured: TGI

COC(=O)[C@@H](Nc1ccccc1)[C@@]1(C(=O)OC)SC12c1ccccc1-c1ccccc12
62.5 µM: NCI-H522 lung
not listed: NCI-H460 lung | SK-OV-3 ovarian | SNB-75 CNS
> 100 µM: all other assays above

Cc1ccc(C[N+](C)(C)N)cc1C
not listed: SK-MEL-2 melanoma
> 10 µM: all other assays above
